A short description of series [1]: Inhibition of Plasmodium falciparum plasmepsin II assessed as substrate cleavage preincubated with enzyme for 5 mins followed by substrate addition and measured immediately by spectrophotometric analysis.
Series [2] is described as follows: Inhibition of Plasmodium falciparum plasmepsin IV assessed as substrate cleavage preincubated with enzyme for 5 mins followed by substrate addition and measured immediately by spectrophotometric analysis.
Series [3] relates to Plasmodium falciparum. The series can be described thus: Antiplasmodial activity against Plasmodium falciparum 3D7 assessed as inhibition of parasite growth incubated for 48 hrs by SYBR green I staining based fluorescence assay. In kind it is functional, organism-based. The following applies: 3D7, 48 h.
For series [4], the system named is Plasmodium falciparum. The series can be described thus: Antiplasmodial activity against chloroquine resistant Plasmodium falciparum 7GB assessed as inhibition of parasite growth incubated for 48 hrs by SYBR green I staining based fluorescence assay. The format is functional, organism-based.
In series [5] the test system is Plasmodium falciparum. The series can be described thus: Antiplasmodial activity against Plasmodium falciparum 3D7 infected in erythrocytes (unknown origin) assessed as inhibition of parasite growth by SYBR green staining based fluorescence assay. In kind it is functional, organism-based. The following applies: 3D7, Erythrocyte.
The nature of series [6]: Cytotoxicity against human HepG2 cells assessed as reduction in cell viability incubated for 24 hrs by MTT assay. In kind it is toxicity, cell-based. A general note: Formazan colour is commonly taken as a measure of viable cells.
A short description of series [7]: Selectivity index, ratio of CC50 for cytotoxicity against human HepG2 cells to IC50 for […] activity against Plasmodium falciparum 3D7. The format is toxicity, cell-based. The following applies: read-out: Ratio CC50/IC50.
The test system of series [8] is Plasmodium falciparum. Briefly: Antiplasmodial activity against chloroquine sensitive Plasmodium falciparum 3D7 infected in erythrocytes (unknown origin) assessed as inhibition of parasite growth incubated for 90 hrs by SYBR green staining based fluorescence assay. In kind it is functional, organism-based. The following applies: 3D7, Erythrocyte.
Series [9] has as its system Plasmodium falciparum. The series can be described thus: Antiplasmodial activity against chloroquine resistant Plasmodium falciparum W2 infected in erythrocytes (unknown origin) assessed as inhibition of parasite growth incubated for 90 hrs by SYBR green staining based fluorescence assay. The format is functional, organism-based. The following applies: W2, Erythrocyte.

In series [10] the test system is Plasmodium falciparum. The series can be described thus: Inhibition of Plasmodium falciparum 3D7 cytochrome bc1 oxidoreductase using decylubiquinol as substrate at 70 uM relative to control.
The test system of series [11] is Plasmodium falciparum. Briefly: Antiplasmodial activity against chloroquine sensitive Plasmodium falciparum 3D7 assessed as reduction in [3H]-hypoxanthine incorporation by liquid scintillation beta counter analysis. In kind it is functional, organism-based.
In series [12] the test system is Plasmodium falciparum. The series can be described thus: Antiplasmodial activity against chloroquine sensitive Plasmodium falciparum D6 infected in erythrocytes (unknown origin) incubated for 72 hrs by SYBR green I staining based fluorescence assay. In kind it is functional, organism-based. The following applies: D6, Erythrocyte.
The subject of series [13] is Plasmodium falciparum. Briefly: Antiplasmodial activity against multidrug resistant Plasmodium falciparum Dd2 infected in erythrocytes (unknown origin) incubated for 72 hrs by SYBR green I staining based fluorescence assay. In kind it is functional, organism-based. The following applies: Dd2, Erythrocyte.
Series [14] can be described thus: Cytotoxicity against human U-937 cells assessed as inhibition of cell growth incubated for 24 hrs by Celltiter-Glo assay. The format is toxicity, cell-based. For orientation: In ATP-based viability assays light output follows the ATP content of the culture.
The nature of series [15]: Cytotoxicity against human PBMC cells assessed as inhibition of cell growth incubated for 24 hrs by Celltiter-Glo assay. The format is toxicity, cell-based.
The nature of series [16]: Inhibition of Plasmodium falciparum plasmepsin V.
Series [17] in a line: Inhibition of Plasmodium falciparum plasmepsin X.
Series [18] deals with Plasmodium berghei. The series can be described thus: Antimalarial activity against GFP-expressing liver stage Plasmodium berghei ANKA sporozoites infected in human HepG2 cells assessed as inhibition of parasite growth incubated for 2 days by imaging analysis. The format is functional, organism-based. The following applies: HepG2, 48 h.
The subject of series [19] is Plasmodium berghei. The series can be described thus: Antimalarial activity against GFP-expressing Plasmodium berghei ANKA infected in mouse assessed as survival rate at 50 mg/kg, sc pre-infected for 2 hrs followed by compound addition. The format is functional.
Series [20] deals with Plasmodium berghei. Briefly: Antimalarial activity against chloroquine resistant Plasmodium berghei NK-65 infected RBC infected in Swiss albino mouse assessed as survival rate at 100 mg/kg, sc pre-infected for 48 hrs followed by compound addition for 4 days in the presence of artemisinin. The format is functional. The note with it: time 4 day.
Series [21] has as its system Plasmodium falciparum. Briefly: Antiplasmodial activity against Plasmodium falciparum RKL-9 stage I-V gametocytes assessed as reduction in parasitemia incubated for 72 hrs by giemsa staining based analysis. The note with it: RKL-9, 72 h.

Where only a bound is given, the exact number is not on record here.

For `CC[C@H](C)[C@@H](C(=O)N[C@H](Cc1ccccc1)[C@@H](O)CN1CCN(C[C@H](O)[C@@H](Cc2ccccc2)NC(=O)[C@H]([C@@H](C)CC)N2C(=O)c3ccccc3C2=O)CC1)N1C(=O)c2ccccc2C1=O`, the inhibitory constant (Ki) (commonly a measure of affinity in units of concentration, obtained from inhibition or displacement) in series [1] came out at 990 nM.
Regarding `CC(C)[C@H](C(=O)N[C@H](Cc1ccccc1)[C@@H](O)CN1CCN(C[C@H](O)[C@@H](Cc2ccccc2)NC(=O)[C@@H](C(C)C)N2C(=O)c3ccccc3C2=O)CC1)N1C(=O)c2ccccc2C1=O`, the Ki in [2] is 3300 nM.
With `O=C(N[C@H](Cc1ccccc1)[C@@H](O)CN1CCN(Cc2ccc(F)cc2)CC1)[C@@H](Cc1ccccc1)N1C(=O)c2ccccc2C1=O`, the IC50 (as a rule, the concentration that gives 50% inhibition) came out at 1330 nM with Plasmodium falciparum [3] and 2990 nM in the series on Plasmodium falciparum [4].
As for `O=C(N[C@H](Cc1ccccc1)[C@@H](O)CN1CCN(C[C@H](O)[C@@H](Cc2ccccc2)NC(=O)[C@@H](Cc2ccccc2)N2C(=O)c3ccccc3C2=O)CC1)[C@@H](Cc1ccccc1)N1C(=O)c2ccccc2C1=O`, the IC50 in the series on Plasmodium falciparum [3] came out at 1300 nM; in the series with Plasmodium falciparum [4], 2990 nM.
`COc1ccc(N2C(=O)c3cccc(NCc4ccccc4)c3C2=O)cc1`: the half-maximal inhibitory concentration (IC50) in the series with Plasmodium falciparum [5] was 6800 nM. In series [6], the CC50 (in general, the concentration giving 50% cytotoxicity) at 24 h was above 250000 nM. Besides, the selectivity ratio in series [7] was above 59.
Regarding `CC(C)CC(c1nc2ccccc2n1Cc1cnnn1-c1ccccc1)N1C(=O)c2ccccc2C1=O` (stereo not drawn), the results for the half-inhibitory concentration (IC50) in the series on Plasmodium falciparum [8] and in the series with Plasmodium falciparum [9] were 900 nM and 700 nM, respectively.
Take `CC(C)CC(c1nc2ccccc2n1Cc1cnn[nH]1)N1C(=O)c2ccccc2C1=O` (stereo not drawn): the 50% inhibitory concentration (IC50) in the series with Plasmodium falciparum [8] came out at 700 nM; in the series with Plasmodium falciparum [9], 900 nM.
`COc1ccc(N2C(=O)c3cccc(N)c3C2=O)cc1`: the IC50 with Plasmodium falciparum [5] was determined as 4200 nM. In series [6], the CC50 at 24 h is above 250000 nM. Further, in series [7], the selectivity ratio was above 36. Also, in the series on Plasmodium falciparum [10], the inhibition (as a rule, the drop in the measured response relative to a control, in per cent) came out at 74%.
Turning to `CC(C)(C)OC(=O)N[C@H](Cc1ccccc1)[C@@H](O)CN1CCC(N2CCCCC2)CC1`, the 50% inhibitory concentration (IC50) came out at 1160 nM in the series with Plasmodium falciparum [3] and 2990 nM in the series with Plasmodium falciparum [4].
As for `Cc1ccc2c(c1)C(=O)N(C(Cc1ccccc1)C(=O)NC(Cc1ccccc1)C(O)CN1CCN(CC(O)C(Cc3ccccc3)NC(=O)C(Cc3ccccc3)N3C(=O)c4ccc(C)cc4C3=O)CC1)C2=O` (stereo not drawn), the concentration for half-maximal inhibition (IC50) in the series with Plasmodium falciparum [11] was determined as 1310 nM; in the series on Plasmodium falciparum [12] it was 910 nM; in the series with Plasmodium falciparum [13], 600 nM; with Plasmodium berghei [18], 2100 nM; in the series on Plasmodium falciparum [21] it was 1680 nM. In addition, the inhibition constant Ki was 112 nM in series [1], 252 nM in series [2], 530 nM in [16] and 3830 nM in series [17]. Further, the cytotoxic concentration (CC50) at 24 h in series [14] was 26400 nM; in series [15], 11100 nM. In addition, the Survival with Plasmodium berghei [19] came to 20 days; with Plasmodium berghei [20], 15 days.
On to `CC(C)[C@@H](C(=O)N[C@H](Cc1ccccc1)[C@@H](O)CN1CCN(Cc2ccc(Br)cc2)CC1)N1C(=O)c2ccccc2C1=O`, for which the 50% inhibitory concentration (IC50) with Plasmodium falciparum [3] is 1250 nM.
